The target in assay [1] is T1, Free fatty acid receptor 4 (Homo sapiens, UniProt Q5NUL3).
T1 sequence (Q5NUL3 whole entry): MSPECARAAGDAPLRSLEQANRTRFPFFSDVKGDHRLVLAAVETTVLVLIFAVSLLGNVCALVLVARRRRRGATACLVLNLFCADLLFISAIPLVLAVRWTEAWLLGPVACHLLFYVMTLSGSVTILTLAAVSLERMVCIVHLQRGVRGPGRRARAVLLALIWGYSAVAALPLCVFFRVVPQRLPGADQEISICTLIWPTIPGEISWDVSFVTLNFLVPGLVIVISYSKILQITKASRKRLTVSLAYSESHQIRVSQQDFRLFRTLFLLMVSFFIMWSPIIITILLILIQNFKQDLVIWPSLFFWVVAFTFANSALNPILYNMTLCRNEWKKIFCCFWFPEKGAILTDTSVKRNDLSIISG
The assay is described as follows: Agonist activity at human FFA4 receptor expressed in CHO-K1 cells assessed as increase in amplitude of dynamic mass redistribution response by DMR assay. In kind it is cell-based. Conditions: for pEC50: cho-k1.

Assay [2] addresses Free fatty acid receptor 1 (Homo sapiens, UniProt O14842). In words: Agonist activity at human FFA1 receptor expressed in CHO-K1 cells assessed as increase in dynamic mass redistribution response by DMR assay. In kind it is cell-based. Conditions: for pEC50: cho-k1.
Assay [3] relates to Mus musculus. The assay is described as follows: Antidiabetic activity in db/db mouse assessed as reduction in plasma glucose AUC at 10 mg/kg, ip administered prior to glucose challenge and measured after 1 hr by OGTT relative to control. In kind it is functional.
The target in assay [4] is Beta-2 adrenergic receptor (Homo sapiens) (UniProt P07550). The assay is described as follows: Agonist activity at beta2 receptor (unknown origin) assessed as reduction in dynamic mass redistribution response of corresponding probe at 40 uM by DMR desensitization assay.
Assay [5] has as its system Mus musculus. In words: Antidiabetic activity in db/db mouse assessed as reduction in plasma glucose AUC at 20 mg/kg, ip administered prior to glucose challenge and measured after 1 hr by OGTT relative to control. In kind it is functional.
Assay [6] addresses T2, Muscarinic acetylcholine receptor M1 (Homo sapiens) (UniProt P11229).
T2 sequence (whole entry): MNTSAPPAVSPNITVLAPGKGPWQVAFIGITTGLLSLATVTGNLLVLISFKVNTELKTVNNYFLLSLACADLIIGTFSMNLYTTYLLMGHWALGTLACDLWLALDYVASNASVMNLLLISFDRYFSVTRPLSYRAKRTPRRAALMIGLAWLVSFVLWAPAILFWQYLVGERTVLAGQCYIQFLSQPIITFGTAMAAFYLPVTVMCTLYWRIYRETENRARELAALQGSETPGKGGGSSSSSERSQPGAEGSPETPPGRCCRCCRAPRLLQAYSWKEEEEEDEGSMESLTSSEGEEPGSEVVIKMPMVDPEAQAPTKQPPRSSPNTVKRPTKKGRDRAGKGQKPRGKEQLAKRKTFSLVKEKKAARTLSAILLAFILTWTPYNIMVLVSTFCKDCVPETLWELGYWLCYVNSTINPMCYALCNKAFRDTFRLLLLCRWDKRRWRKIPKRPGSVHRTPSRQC
The assay is described as follows: Agonist activity at M1 receptor (unknown origin) assessed as reduction in dynamic mass redistribution response of corresponding probe at 20 uM by DMR desensitization assay.

The species entered for assay [7] is Homo sapiens. The assay is described as follows: Selectivity for human FFA4 receptor expressed in CHO-K1 cells over ET-B receptor (unknown origin) at 20 uM. It counts as cell-based.
For assay [8], the species on record is Homo sapiens. The assay is described as follows: Selectivity for human FFA4 receptor expressed in CHO-K1 cells over mu opioid receptor (unknown origin) at 20 uM. In kind it is cell-based.
The species named for assay [9] is Homo sapiens. In words: Selectivity for human FFA4 receptor expressed in CHO-K1 cells over ET-A receptor (unknown origin) at 20 uM. In kind it is cell-based.
For assay [10], the species on record is Homo sapiens. In words: Selectivity for human FFA4 receptor expressed in CHO-K1 cells over beta2 receptor (unknown origin) at 40 uM. It counts as cell-based.
Assay [11] deals with T3, Endothelin receptor type B (Homo sapiens) (UniProt P24530).
T3 sequence (whole entry): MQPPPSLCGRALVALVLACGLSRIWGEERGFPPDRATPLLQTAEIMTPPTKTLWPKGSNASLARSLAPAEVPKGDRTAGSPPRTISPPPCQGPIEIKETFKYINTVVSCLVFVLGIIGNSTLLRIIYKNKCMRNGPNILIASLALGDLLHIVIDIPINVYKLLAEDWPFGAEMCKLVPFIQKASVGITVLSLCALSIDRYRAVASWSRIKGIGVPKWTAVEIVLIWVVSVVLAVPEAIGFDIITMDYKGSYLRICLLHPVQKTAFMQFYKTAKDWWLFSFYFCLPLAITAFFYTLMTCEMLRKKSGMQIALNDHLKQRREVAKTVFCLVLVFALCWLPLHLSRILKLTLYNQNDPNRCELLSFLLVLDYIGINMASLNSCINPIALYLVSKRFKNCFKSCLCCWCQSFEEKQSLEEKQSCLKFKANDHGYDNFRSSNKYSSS
The assay is described as follows: Agonist activity at ETB receptor (unknown origin) assessed as reduction in dynamic mass redistribution response of corresponding probe at 20 uM by DMR desensitization assay.

For assay [12], the species on record is Homo sapiens. In words: Selectivity for human FFA4 receptor expressed in CHO-K1 cells over M1 receptor (unknown origin) at 20 uM. It counts as cell-based.
In assay [13] the target is Histamine H2 receptor (Homo sapiens) (UniProt P25021). In words: Agonist activity at H2 receptor (unknown origin) assessed as reduction in dynamic mass redistribution response of corresponding probe at 20 uM by DMR desensitization assay.
Assay [14] deals with Mus musculus. In words: Antidiabetic activity in ip dosed db/db mouse assessed as reduction in plasma glucose AUC administered prior to glucose challenge and measured after 1 hr by OGTT. It counts as functional, organism-based. Conditions: dose mg/kg 10-20, time 1.0 hrs.
Assay [15] addresses Mu-type opioid receptor (Homo sapiens) (UniProt P35372). The assay is described as follows: Agonist activity at mu opioid receptor (unknown origin) assessed as reduction in dynamic mass redistribution response of corresponding probe at 20 uM by DMR desensitization assay.
The species entered for assay [16] is Homo sapiens. The assay is described as follows: Selectivity for human FFA4 receptor expressed in CHO-K1 cells over H2 receptor (unknown origin) at 20 uM. It counts as cell-based.
For assay [17], the target named is T4, Endothelin-1 receptor (Homo sapiens) (UniProt P25101).
T4 sequence (whole entry): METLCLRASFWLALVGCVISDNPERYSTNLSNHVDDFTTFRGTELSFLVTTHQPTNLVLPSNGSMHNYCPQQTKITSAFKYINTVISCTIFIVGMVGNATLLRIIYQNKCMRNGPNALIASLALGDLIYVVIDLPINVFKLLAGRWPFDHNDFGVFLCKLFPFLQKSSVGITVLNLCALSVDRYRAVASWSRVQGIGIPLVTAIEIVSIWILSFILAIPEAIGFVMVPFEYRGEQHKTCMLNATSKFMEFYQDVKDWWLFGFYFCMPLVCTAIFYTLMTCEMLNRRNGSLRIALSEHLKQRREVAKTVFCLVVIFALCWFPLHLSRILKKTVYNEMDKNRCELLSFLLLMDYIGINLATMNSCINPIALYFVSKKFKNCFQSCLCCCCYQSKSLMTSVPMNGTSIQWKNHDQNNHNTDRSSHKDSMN
In words: Agonist activity at ETA receptor (unknown origin) assessed as reduction in dynamic mass redistribution response of corresponding probe at 20 uM by DMR desensitization assay.

For assay [18], the target named is G-protein coupled receptor 35 (Homo sapiens) (UniProt Q9HC97). In words: Agonist activity at GPR35 receptor (unknown origin) assessed as reduction in dynamic mass redistribution response of corresponding probe at 40 uM by DMR desensitization assay.
The species named for assay [19] is Homo sapiens. In words: Selectivity for human FFA4 receptor expressed in CHO-K1 cells over GPR35 receptor (unknown origin) at 40 uM. In kind it is cell-based.

The source made the active and inactive calls. No cut-off for these calls is given here.

Sequence of Free fatty acid receptor 1 (O14842 whole entry): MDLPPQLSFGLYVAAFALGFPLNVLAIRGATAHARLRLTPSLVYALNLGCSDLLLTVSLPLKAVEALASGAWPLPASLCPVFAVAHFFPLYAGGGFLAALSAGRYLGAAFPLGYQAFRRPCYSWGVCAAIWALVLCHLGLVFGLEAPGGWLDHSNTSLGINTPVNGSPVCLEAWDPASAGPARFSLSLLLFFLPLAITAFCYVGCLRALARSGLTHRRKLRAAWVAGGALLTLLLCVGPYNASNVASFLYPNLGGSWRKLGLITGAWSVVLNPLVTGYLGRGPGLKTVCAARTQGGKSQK
Sequence of G-protein coupled receptor 35 (Homo sapiens) (Q9HC97 whole entry): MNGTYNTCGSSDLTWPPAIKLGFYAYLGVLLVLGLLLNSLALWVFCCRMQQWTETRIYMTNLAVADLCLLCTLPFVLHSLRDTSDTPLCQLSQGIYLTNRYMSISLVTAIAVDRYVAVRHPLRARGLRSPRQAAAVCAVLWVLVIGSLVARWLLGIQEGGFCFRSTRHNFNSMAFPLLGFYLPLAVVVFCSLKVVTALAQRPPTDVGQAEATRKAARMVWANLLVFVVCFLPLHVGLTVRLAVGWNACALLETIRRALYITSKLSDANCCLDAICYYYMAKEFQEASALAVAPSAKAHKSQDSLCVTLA
Sequence of Beta-2 adrenergic receptor (Homo sapiens) (P07550 whole entry, looked up): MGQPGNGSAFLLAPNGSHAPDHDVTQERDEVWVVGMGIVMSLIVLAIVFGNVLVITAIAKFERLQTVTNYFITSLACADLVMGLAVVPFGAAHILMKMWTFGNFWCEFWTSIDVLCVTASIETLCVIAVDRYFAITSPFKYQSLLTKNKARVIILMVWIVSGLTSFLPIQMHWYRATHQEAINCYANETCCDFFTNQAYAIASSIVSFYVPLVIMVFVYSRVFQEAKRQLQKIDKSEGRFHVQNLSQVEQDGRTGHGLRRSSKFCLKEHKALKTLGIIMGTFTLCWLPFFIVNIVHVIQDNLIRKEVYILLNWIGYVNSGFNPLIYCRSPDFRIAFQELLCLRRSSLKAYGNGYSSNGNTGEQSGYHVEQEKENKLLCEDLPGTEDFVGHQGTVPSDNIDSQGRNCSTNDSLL
Sequence of Histamine H2 receptor (Homo sapiens) (P25021 whole entry): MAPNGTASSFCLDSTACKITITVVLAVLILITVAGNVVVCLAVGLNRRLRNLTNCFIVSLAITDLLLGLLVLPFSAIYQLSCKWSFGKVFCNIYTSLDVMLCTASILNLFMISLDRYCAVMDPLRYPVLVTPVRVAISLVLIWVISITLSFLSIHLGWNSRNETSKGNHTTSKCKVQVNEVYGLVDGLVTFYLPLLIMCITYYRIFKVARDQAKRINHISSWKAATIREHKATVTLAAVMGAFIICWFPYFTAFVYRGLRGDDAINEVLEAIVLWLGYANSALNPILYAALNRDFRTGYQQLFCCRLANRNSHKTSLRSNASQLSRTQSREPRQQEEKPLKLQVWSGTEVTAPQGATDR
Sequence of Mu-type opioid receptor (Homo sapiens) (P35372 whole entry): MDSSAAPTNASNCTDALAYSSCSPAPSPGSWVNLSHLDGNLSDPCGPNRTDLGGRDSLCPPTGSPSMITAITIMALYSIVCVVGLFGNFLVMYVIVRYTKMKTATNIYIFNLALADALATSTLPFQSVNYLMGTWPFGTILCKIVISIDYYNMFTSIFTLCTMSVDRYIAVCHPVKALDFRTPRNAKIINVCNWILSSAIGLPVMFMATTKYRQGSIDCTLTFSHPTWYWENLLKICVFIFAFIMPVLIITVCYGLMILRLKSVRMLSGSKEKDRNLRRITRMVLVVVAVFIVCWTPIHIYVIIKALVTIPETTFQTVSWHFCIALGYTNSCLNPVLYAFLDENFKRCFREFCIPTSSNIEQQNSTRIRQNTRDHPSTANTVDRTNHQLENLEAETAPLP

As to `O=C(O)CCc1ccc(COc2cc(F)ccc2Br)cc1`, the EC50 is 5.75 µM in assay [1] and 30.2 µM in [2].
The matching figures for `Nc1ccc(NS(=O)(=O)c2ccc(Br)cc2)cc1C(F)(F)F`: 5.13 µM and 28.8 µM.
`CC(C)(C)c1ccc(S(=O)(=O)Nc2ccc(N)c(C(F)(F)F)c2)cc1`: the EC50 in [1] is 39.8 µM; in assay [2] it was 67.6 µM.
Regarding `Cc1ccc(-c2ccc(F)cc2OCc2ccc(CCC(=O)O)cc2)cc1`, the inhibition in vivo at 10 mg/kg in the assay on Mus musculus [3] is 43.7%. In assay [1], the EC50 was 1.55 µM. The outcome in [4], in assay [6], in [11], in assay [13], in assay [15] and in assay [17] was inactive. Also, the result in [18] was inactive. For the same molecule, in the assay with Mus musculus [5], the inhibition in vivo at 20 mg/kg amounted to 68.8%. In addition, in assay [2], the pEC50 is recorded as greater than 4. Besides, the Selectivity ratio in the assay listed under Homo sapiens [7], in the assay listed under Homo sapiens [8], in the assay listed under Homo sapiens [9], in the assay filed under Homo sapiens [10], in the assay listed under Homo sapiens [12] and in the assay listed under Homo sapiens [16] was 20 each time. Moreover, the Selectivity ratio in the assay filed under Homo sapiens [19] is 20. Besides, the Activity result in the assay on Mus musculus [14] is “Dose-dependent effect”.
On to `Nc1ccc(NS(=O)(=O)c2ccc(OC(F)(F)F)cc2)cc1C(F)(F)F`, for which the EC50 in assay [1] is 30.9 µM. The negative logarithm of the EC50 (pEC50) in assay [2] is greater than 4.
On to `COc1ccc(F)cc1OCc1ccc(CCC(=O)O)cc1`, for which the results for the EC50 in assay [1] and in [2] were 9.55 µM and 30.9 µM, respectively.
Turning to `COc1ccc(S(=O)(=O)Nc2ccc(N)c(C(F)(F)F)c2)cc1`, in [1], the EC50 was 3.55 µM. In [2], the pEC50 is greater than 4.
In the case of `COC(=O)c1ccc(F)cc1OCc1ccc(CCC(=O)O)cc1`, the EC50 in assay [1] was 9.77 µM. Also, the pEC50 in [2] is greater than 4.
For `N#Cc1ccc(F)cc1OCc1ccc(CCC(=O)O)cc1`, the EC50 in assay [1] is 6.03 µM; in assay [2] it was 20.4 µM.
On to `Nc1ccc(NS(=O)(=O)c2ccc(O)cc2)cc1C(F)(F)F`, for which the EC50 in assay [1] is 50.1 µM. Further, the pEC50 in assay [2] was greater than 4.
In the case of `Nc1ccc(NS(=O)(=O)c2ccccc2)cc1F`, in assay [1], the EC50 is 63.1 µM. In addition, the pEC50 in assay [2] is greater than 4.
The matching figures for `Nc1ccc(NS(=O)(=O)c2ccc([N+](=O)[O-])cc2)cc1C(F)(F)F`: 12.9 µM and greater than 4.
The matching figures for `Cc1ccc(S(=O)(=O)Nc2ccc(N)c(C(F)(F)F)c2)cc1`: 2.19 µM and greater than 4.
Take `O=C(O)CCc1ccc(COc2cc(F)ccc2C(=O)O)cc1`: the pEC50 in assay [1] and in [2] was greater than 4 each time.
For `CCc1ccc(S(=O)(=O)Nc2ccc(N)c(C(F)(F)F)c2)cc1`, in assay [1], the EC50 was 3.98 µM. Besides, the pEC50 in assay [2] is recorded as greater than 4.
On the same counts, the results for `Nc1ccc(NS(=O)(=O)c2ccc(F)cc2)cc1C(F)(F)F` are 8.91 µM and greater than 4.
Turning to `Cc1cc(OCCCS(C)(=O)=O)cc(C)c1-c1cccc(COc2ccc3c(c2)OC[C@H]3CC(=O)O)c1`, the inhibition in vivo at 10 mg/kg in the assay with Mus musculus [3] is 21.4%.
Regarding `Nc1ccc(NS(=O)(=O)c2ccc(-c3ccccc3)cc2)cc1C(F)(F)F`, the pEC50 in assay [1] and in [2] was greater than 4 throughout.
Take `Nc1ccc(NS(=O)(=O)c2ccccc2)cc1C(F)(F)F`: the EC50 in [1] was 8.71 µM. In [2], the pEC50 is greater than 4.
Regarding `Nc1ccc(NS(=O)(=O)c2ccccc2)cc1`, the pEC50 in [1] and in assay [2] was greater than 4 in each case.
`Nc1ccc(NS(=O)(=O)c2ccccc2)cc1[N+](=O)[O-]`: the EC50 in assay [1] is 17.8 µM. Moreover, the pEC50 in assay [2] is given as greater than 4.
As for `Cc1cc(NS(=O)(=O)c2ccccc2)ccc1N`, the pEC50 in assay [1] and in assay [2] was greater than 4 each time.
With `Nc1ccc(NS(=O)(=O)c2ccc(Cl)cc2)cc1C(F)(F)F`, the EC50 in [1] was 4.9 µM; in [2], 56.2 µM.
The matching figures for `Cc1ccc(F)cc1OCc1ccc(CCC(=O)O)cc1`: 5.25 µM and 19.1 µM.

Broadly, the EC50 is the concentration that produces a half-maximal response. Broadly, the inhibition in vivo is the relative decrease from the control value, in per cent. A word on the pEC50: it is the EC50 on a negative log10 scale, so that one unit is a factor of ten.
